# Calls of active or inactive are those of the source. How the calls were made is not given here.
# Biological target: Influenza A virus M2 proton channel (A/TW/4845/1999 H1N1)
# Test: NMR binding screen, influenza A virus M2 proton channel, Kd (AID 1549)
# Settings: M2 protein
row,Structure (SMILES),Kd
1,O=C(O)c1cc2ccccc2cn1,> 4 mM (inactive)
2,CCN1CCn2c1nc(N1CCOCC1)nc2=O,> 4 mM (inactive)
3,OC[C@H]1O[C@@H](Oc2ccc(O)cc2)[C@H](O)[C@@H](O)[C@@H]1O,> 4 mM (inactive)
4,CCC(C)OC1CCS(=O)(=O)C1 (stereo not drawn),> 4 mM (inactive)
5,COc1ccc(/C=C2\SC(N)=NC2=O)cc1,> 4 mM (inactive)
6,CC(=O)NCCc1cc2ccc(C)c(C)c2[nH]c1=O,> 4 mM (inactive)
7,Cc1cc(C(=O)c2c(C)nn(C)c2Cl)n(C)n1,> 4 mM (inactive)
8,O=C(Nc1ccc2c(c1)OCO2)c1cnn2cccnc12,> 4 mM (inactive)
9,COc1cc2c(cc1-c1coc3c4c(c(OC)cc3c1=O)OC(C)(C)C=C4)OCO2,> 4 mM (inactive)
10,CC(=O)NC1(NC(C)=O)CCN(C)CC1,> 4 mM (inactive)
11,C[C@@H]1O[C@@H](O[C@H]2C[C@@H](O)[C@]3(CO)C4C(CC[C@]3(O)C2)[C@@]2(O)CC[C@H](C3=CC(=O)OC3)[C@@]2(C)C[C@H]4O)[C@H](O)[C@H](O)[C@H]1O (stereo partly drawn),> 4 mM (inactive)
12,COC(=O)CCSCC(=O)Nc1nccs1,> 4 mM (inactive)
13,OCCCc1nc2ccccc2[nH]1,> 4 mM (inactive)
14,O=C1CCCN1C(=O)CN1CCOCC1,> 4 mM (inactive)
15,O=P(c1ccccc1)(c1ccccc1)C1CCOCC1,> 4 mM (inactive)
16,O=C(O)c1cccnc1Oc1ccccc1,> 4 mM (inactive)
17,O=C1CC(=O)N(c2ccccc2F)C(=S)N1,> 4 mM (inactive)
18,CN(C)c1nc(N2CCOCC2)nc(N2CCOCC2)n1,> 4 mM (inactive)
19,CN=C(c1ccc([N+](=O)[O-])cc1)N(C)C,> 4 mM (inactive)
20,Cc1cc(NC(=O)c2cccc(S(C)(=O)=O)c2)no1,> 4 mM (inactive)
21,O=c1[nH]cc(N2CCCCC2)c(=O)[nH]1,> 4 mM (inactive)
22,Fc1ccc(CN2CCCNCC2)cc1,> 4 mM (inactive)
23,COc1ncnc(N)c1[N+](=O)[O-],> 4 mM (inactive)
24,O=C(O)C1NCCc2ccccc21 (stereo not drawn),> 4 mM (inactive)

row,Structure (SMILES),Kd
1,Cc1ccc(C(=O)NC2=NCCS2)o1,> 4 mM (inactive)
2,COc1cc(OC)c2c(=O)c(-c3ccccc3)coc2c1,> 4 mM (inactive)
3,NC(=O)c1cc(Cl)c(C(N)=O)cc1Cl,> 4 mM (inactive)
4,CCCCN1C(=O)N(C)C2NC(=O)NC21 (stereo not drawn),> 4 mM (inactive)
5,O=c1cc(O)nc(SCc2ccccc2)[nH]1,> 4 mM (inactive)
6,Cc1cc(=O)cc(C)n1-c1ccccc1N,> 4 mM (inactive)
7,CC(=O)Nc1ccccc1-c1ccccc1NC(C)=O,> 4 mM (inactive)
8,Nc1nc(O)c(C2=c3cc(Cl)ccc3=NC2=O)s1,> 4 mM (inactive)
9,O=C1CCc2ccccc2CN1,> 4 mM (inactive)
10,O=C(Cn1cncn1)c1ccc(F)c(F)c1,> 4 mM (inactive)
11,Nc1ccc(-c2cn3c(n2)SCC3)cc1,> 4 mM (inactive)
12,CSc1nc(O)cc(=O)[nH]1,> 4 mM (inactive)
13,CCOC(=O)c1ccc(Oc2ccc(C)nn2)cc1,> 4 mM (inactive)
14,COc1c(OC)c2occc2c2oc(=O)ccc12,> 4 mM (inactive)
15,CC(C)n1nnc2cc(C(=O)O)ccc21,> 4 mM (inactive)
16,COC(=O)c1c(C)c2c(c(C)c1O)OC(=O)c1c(C)c(Cl)c(O)c(Cl)c1O2,> 4 mM (inactive)
17,Cc1nn2c(nc1=O)SCC2(O)c1ccccc1 (stereo not drawn),> 4 mM (inactive)
18,Cc1ccc(C(=O)Nn2cnnc2)c(Cl)c1,> 4 mM (inactive)
19,COc1cc(/C=C2\SC(=S)NC2=O)ccc1O,> 4 mM (inactive)
20,O=C(NCc1cccc(Cl)c1)c1ccco1,> 4 mM (inactive)
21,CCOC(=O)c1c(C)nc2c(C#N)cnn2c1C,> 4 mM (inactive)
22,CS(=O)(=O)N1CCN(C(=O)Cc2cccs2)CC1,> 4 mM (inactive)
23,Cc1ccccc1NC(=O)N1CCOCC1,> 4 mM (inactive)
24,CN(C)c1nc(N2CCOCC2)c2cnn(C)c2n1,> 4 mM (inactive)

row,Structure (SMILES),Kd
1,O=S1(=O)CCC(NCCO)C1 (stereo not drawn),> 4 mM (inactive)
2,COc1ccccc1NC(=O)/C=N/O,> 4 mM (inactive)
3,CC(=O)Nc1c(C#N)c(C(C)(C)C)cn1C,> 4 mM (inactive)
4,O=C(Nc1ccncc1)Nc1ccc(F)cc1F,> 4 mM (inactive)
5,NC(=O)CCn1cnc2ccccc21,> 4 mM (inactive)
6,CC(C)(O)[C@@H]1[C@H]2OC(=O)[C@@H]1[C@]1(O)C[C@H]3O[C@]34C(=O)O[C@H]2[C@]14C,> 4 mM (inactive)
7,CSc1ccc(/C=c2\sc3ncnn3c2=O)cc1,> 4 mM (inactive)
8,c1ccc(-c2nnc(CNCc3ccco3)o2)cc1,> 4 mM (inactive)
9,Clc1ncc2[nH]cnc2n1,> 4 mM (inactive)
10,c1ccc(-c2nc3ccccc3nc2-c2ccccn2)nc1,> 4 mM (inactive)
11,COc1cccc(-c2cc(=O)c3cc(OC)ccc3o2)c1,> 4 mM (inactive)
12,CC(=O)Nc1ccc(NC(=O)N2CCOCC2)cc1,> 4 mM (inactive)
13,CCOC(=O)c1ccc(F)cc1F,> 4 mM (inactive)
14,c1cc2n(c1)CCNC2c1ccncc1 (stereo not drawn),> 4 mM (inactive)
15,Nc1nc(-c2cccnc2)nn1C(=O)Cc1ccccc1,> 4 mM (inactive)
16,Cc1cc(C)n(-c2ccc(N)cc2)n1,> 4 mM (inactive)
17,Cc1ccc(-n2cnnn2)c2cccnc12,> 4 mM (inactive)
18,COC(=O)c1cc(-c2c(C)nn(-c3ccccc3)c2C)n[nH]1,> 4 mM (inactive)
19,Cn1c(SCC(N)=O)nnc1-c1cccnc1,> 4 mM (inactive)
20,COC(=O)C1=C(C)N(c2cccc(C(C)=O)c2)C(=O)C1,> 4 mM (inactive)
21,COc1ccc(C(N)=O)cc1NC(C)=O,> 4 mM (inactive)
22,O=C1c2ccccc2C(=O)N1OCc1ccccc1,> 4 mM (inactive)
23,O=C(O)C1=C[C@@H](O)[C@@H](O)[C@H](O)C1,> 4 mM (inactive)
24,C=C[C@H]1CN2CC[C@H]1C[C@H]2[C@H](O)c1ccnc2ccccc12,> 4 mM (inactive)

row,Structure (SMILES),Kd
1,OCC(O)Cc1ccc2c(c1)OCO2 (stereo not drawn),> 4 mM (inactive)
2,Cc1cc(C)nc(Nc2n[nH]c(Cc3ccccc3)n2)n1,> 4 mM (inactive)
3,O=C(NCO)c1ccccc1Cl,> 4 mM (inactive)
4,O=C(O)CC1C(=O)NCCN1Cc1cccs1 (stereo not drawn),> 4 mM (inactive)
5,COc1ccc(-c2cc(=O)c3c(O)cc(O[C@H]4O[C@H](CO[C@@H]5O[C@@H](C)[C@H](O)[C@@H](O)[C@H]5O)[C@@H](O)[C@H](O)[C@H]4O)cc3o2)cc1,> 4 mM (inactive)
6,CC(=O)N1CC2(C)CN(C(C)=O)CC(C)(C1)C2O (stereo not drawn),> 4 mM (inactive)
7,Cn1c(=O)[nH]c2nc[nH]c2c1=O,> 4 mM (inactive)
8,O=C1NC(=S)N/C1=C\c1ccccc1,> 4 mM (inactive)
9,O=C1CSC(=O)N1CNc1ccccc1,> 4 mM (inactive)
10,CC(C)Nc1ncnc2c1nnn2C,> 4 mM (inactive)
11,Cc1noc(C)c1C(=O)N1CCN(c2ncccn2)CC1,> 4 mM (inactive)
12,O=C1CNc2cc(C(=O)O)ccc2N1,> 4 mM (inactive)
13,c1ccc2[nH]c(NCCN3CCOCC3)nc2c1,> 4 mM (inactive)
14,C[n+]1cc2c3c(ccc2c2ccc4cc5c(cc4c21)OCO5)OCO3,> 4 mM (inactive)
15,CC(=O)Nc1ccc(S(=O)(=O)N(C)C)cc1,> 4 mM (inactive)
16,O=C(c1ccc(F)cc1)N1CCN(c2ncccn2)CC1,> 4 mM (inactive)
17,O=c1c2c(nc3nc(Cc4ccccc4)[nH]n13)CCC2,> 4 mM (inactive)
18,Cc1nn2c(=O)/c(=C/c3cccc(F)c3)sc2nc1=O,> 4 mM (inactive)
19,CC(C)Nc1nc2n(c(=O)n1)CCN2C(C)C,> 4 mM (inactive)
20,COC(=O)[C@]1(C)CCC[C@]2(C)c3ccc(C(C)C)cc3C(=O)CC12 (stereo partly drawn),> 4 mM (inactive)
21,O=C(Nc1cnccn1)c1cccs1,> 4 mM (inactive)
22,COC1C=CC23c4cc5c(cc4CN(CC2O)[C@@H]3C1)OCO5 (stereo partly drawn),> 4 mM (inactive)
23,C[C@H]1O[C@@H](O[C@H]2[C@@H](O)C[C@H](O[C@H]3[C@@H](O)C[C@H](O[C@H]4CC[C@]5(C)C6C[C@@H](O)[C@]7(C)[C@@H](C8=CC(=O)OC8)CC[C@]7(O)C6CC[C@@H]5C4)O[C@@H]3C)O[C@@H]2C)C[C@H](O)[C@@H]1O (stereo partly drawn),> 4 mM (inactive)
24,NS(=O)(=O)c1ccc(F)cc1,> 4 mM (inactive)

row,Structure (SMILES),Kd
1,N[C@@H](Cc1cc(I)c(Oc2cc(I)c(O)c(I)c2)c(I)c1)C(=O)O,> 4 mM (inactive)
2,OCCOc1ccc(C2=NCCO2)cc1,> 4 mM (inactive)
3,C(=Nn1cnnc1)c1ccccc1,> 4 mM (inactive)
4,COC(=O)Nc1nc2c(C)cccc2s1,> 4 mM (inactive)
5,COC(=O)c1ccccc1NC(=O)c1cc[n+]([O-])cc1,> 4 mM (inactive)
6,Cc1cc(C)n2nc(N)nc2n1,> 4 mM (inactive)
7,Cc1nnc2ccc(N3CCCC3)nn12,> 4 mM (inactive)
8,NCc1ccc2c(c1)OCO2,> 4 mM (inactive)
9,CC(C)CCCC(C)C1CCC2C3=CC[C@H]4C[C@@H](O)CC[C@]4(C)C3CC[C@@]21C (stereo partly drawn),> 4 mM (inactive)
10,Cc1nnc(NCCN2CCOCC2)[nH]c1=O,> 4 mM (inactive)
11,CCc1nnsc1C(=O)Nc1nccs1,> 4 mM (inactive)
12,CC[C@]12CCCN3CCc4c(n(c5ccccc45)[C@](O)(C(=O)OC)C1)[C@@H]32,> 4 mM (inactive)
13,NCc1cccc2c1OCCO2,> 4 mM (inactive)
14,COc1nc(C#N)c(N2CCOCC2)o1,> 4 mM (inactive)
15,O=C(Nc1ccc2c(c1)OCO2)c1cccs1,> 4 mM (inactive)
16,Cc1nn2c(nc1=O)SCC(c1ccccc1)=N2,> 4 mM (inactive)
17,CC(=O)OCc1cc(=O)n(C)c(=O)n1C,> 4 mM (inactive)
18,Cc1onc(-c2ccc(F)cc2)c1C(=O)O,> 4 mM (inactive)
19,OC1COCc2nc3ccccc3n2C1 (stereo not drawn),> 4 mM (inactive)
20,CC1=CC2C(C(C)C)CCC(C)(O)C2CC1 (stereo not drawn),> 4 mM (inactive)
21,COc1ccc2c(c1)OCC(Cc1ccc(OC)c(O)c1)C2=O (stereo not drawn),> 4 mM (inactive)
22,Cc1nnc(NCCCO)[nH]c1=O,> 4 mM (inactive)
